Measurements: patent EP0195316A1, “Quinolonecarboxylic acid derivatives” (KYORIN PHARMACEUTICAL CO., LTD., priority 1985, dated 1986)
≈ marks a conversion by molar mass, not a printed value. Marks after values point to notes of the source that are not given here.

Legend:
M. morganii = test: MIC, in vitro antibacterial activity (clinical isolates); type: cell-based; settings: Morganella morganii, No. of strains 8
[1] = tested on: Pseudomonas aeruginosa V-1; test: MIC, in vitro antibacterial activity (standard strains); type: cell-based; settings: V1; Pseudomonas aeruginosa V-1, 10^6 cells/ml, Gram -
[2] = Repeated oral administration to dog (reference compound); type: in vivo
[3] = tested on: nalidixic acid-resistant Salmonella typhimurium TA98 strain (nal^r); test: Mutagenicity, reverse mutation assay
Text: As for antibacterial agents, assessment of mutagenicity using bacteria is somewhat difficult because of their activity on the test bacteria.

in vivo [4] = settings: mouse, iv
in vivo [5] = settings: rat, po, 10 mg/kg
Subacute toxicity in dog = type: in vivo; settings: beagle dogs, oral, 20 mg/kg/day for 8 days then 50 mg/kg/day for 7 days
Protocol: Subacute toxicity study of the present compound was carried out in beagledogs (10 weeks old, n=3). To animals 20 mg/kg/day of the present compound for 8 days and after that 50 mg/kg/day for 7 days was administered orally.

S. pneumoniae S-4288 = test: In vivo antibacterial activity against systemic infections in mice; settings: Streptococcus pneumoniae, S4288; S. pneumoniae S-4288 systemic infection (i.p.), male ICR mice, oral administration an hour after infection; read-out: ED50
Protocol: (§1) The infections were produced by intraperitoneal injection of suspension of the bacterial cells. The compounds were administered orally at an hour after the injection. Five male ICR mice were used for each dosage. […] The efficacy of the present compound are shown in Table 4 in comparison with those of the reference compounds.

P. aeruginosa IID 1210 = test: as above; settings: Pseudomonas aeruginosa, IID1210; P. aeruginosa IID 1210 systemic infection (i.p.), male ICR mice, oral administration an hour after infection; read-out: ED50
Protocol: as §1

S. aureus Smith = test: as above; settings: Staphylococcus aureus; S. aureus Smith systemic infection (i.p.), male ICR mice, oral administration an hour after infection; read-out: ED50
Protocol: as §1

E. coli ML 4707 = test: as above; settings: Escherichia coli, ML4707; E. coli ML 4707 systemic infection (i.p.), male ICR mice, oral administration an hour after infection; read-out: ED50
Protocol: as §1

[6] = Absorption and metabolism in dogs (HPLC); type: in vivo, beagle dogs
Protocol: A 2 mg dose of the present compound was administered to beagle dogs orally or intravenously, and the serum levels were measured by HPLC (High-performance liquid chromatography).

SMILES: CC1CN(c2c(F)cc3c(=O)c(C(=O)O)cn(C4CC4)c3c2Cl)CCN1 (stereo not shown) [Ref.2, 8-Chloro-1-cyclopropyl-6-fluoro-1,4-dihydro-7-(3-methyl-1-piperazinyl)-4-oxo-3-quinolinecarboxylic acid]
- MIC (M. morganii): 0.1 µg/mL (≈ 0.263 µM)
- MIC [1]: 0.2 µg/mL (≈ 0.527 µM)
- GPT and TTT (hepatoxicity) [2]: marked elevation of GPT and decrease of TTT
- side effect on central nervous system [2]: strong vomiting and clonic convulsion

SMILES: NC1CCN(c2c(F)cc3c(=O)c(C(=O)O)cn(C4CC4)c3c2Cl)C1 (stereo not drawn) [Example 25, 7-(3-Amino-l-pyrrolidinyl)-8-chloro-l-cyclopropyl-6-fluoro-1,4-dihydro-4-oxo-3-quinolinecarboxylic acid]
- His^+ revertants per plate ([3]; 0.005 µg/plate, S9-mix +): 60
- His^+ revertants per plate ([3]; 0.005 µg/plate, S9-mix -): 28
- His^+ revertants per plate ([3]; 0.01 µg/plate, S9-mix +): 48
- His^+ revertants per plate ([3]; 0.01 µg/plate, S9-mix -): 29
- His^+ revertants per plate ([3]; 0.05 µg/plate, S9-mix +): 39*
- His^+ revertants per plate ([3]; 0.05 µg/plate, S9-mix -): 26
- His^+ revertants per plate ([3]; 0.1 µg/plate, S9-mix +): 6*
- His^+ revertants per plate ([3]; 0.1 µg/plate, S9-mix -): 16*
- His^+ revertants per plate ([3]; 0.5 µg/plate, S9-mix +): 0*
- His^+ revertants per plate ([3]; 0.5 µg/plate, S9-mix -): 0*
- His revertant colonies compared with the solvent control ([3]; within measurable concentration, with and without the drug metabolic activation): no increment of His revertant colonies
- MIC (M. morganii): 0.025 µg/mL (≈ 0.0683 µM)
- LD50 (in vivo [4]): 242 mg/kg
- dose excreted at 24 h (in vivo [5]; Excretion rate (% of dose) Bile): 13.4%
- dose excreted at 24 h (in vivo [5]; Excretion rate (% of dose) Urine): 21.7%
- changes in body weight and general conditions (Subacute toxicity in dog): No remarkable changes in body weight and general conditions
- hematological examination and serum biochemical analysis (Subacute toxicity in dog): no abnormality with regard to hematological examination and serum biochemical analysis
- MIC [1]: 0.2 µg/mL (≈ 0.547 µM)
- ED50 (S. pneumoniae S-4288): 13 mg/kg
- ED50 (P. aeruginosa IID 1210): 2.9 mg/kg
- ED50 (S. aureus Smith): 2 mg/kg
- ED50 (E. coli ML 4707): 0.9 mg/kg
- urinary metabolites ([6]; animals (dogs section)): may be hardly metabolized
- Serum levels by oral route versus intravenous route ([6]; beagle dogs, 2 mg dose, HPLC): almost equal to those by intravenous route
